Patent publication US11981953B2, “Method to screen compounds for antifungal activity and pharmaceutical compositions and methods to treat fungal diseases by inhibiting spore germination” (WISCONSIN ALUMNI RESEARCH FOUNDATION, priority 2018, dated 2024)
Where a name gives a salt, the structure may show the parent alone. Read-outs that look alike come from different tables or passages of the source.

Experiments:
Type in all cases: cell-based
[1] = tested on: Cryptococcus neoformans yeast replication; settings: signal relative to negative control
Description: (§1) To identify inhibitors of Cryptococcus neoformans spore germination, a high throughput screen was developed that utilizes a nanoluciferase construct to monitor whether spores germinate in the presence of inhibitor. Briefly a protein luciferase construct was created resulting in a low luciferase signal for non-germinated spores and a high signal from germinated and replicating cells. The screen was coupled with OD600 readings to monitor the ability of compounds to inhibit yeast replication. The examples focused on FDA-approved drugs, as these drugs have the potential of being repurposed into antifungal therapeutics. To determine whether any FDA-approved drugs were able to inhibit Cryptococcus neoformans spore germination and yeast replication, the aforementioned high throughput screen was performed on the L1300 Selleck FDA-Approved Drug Library containing an array of 1108 compounds. This library of compounds is available commercially from Selleck Chemicals, 14408 W Sylvanfield Drive, Houston, Tex. 77014, USA.
(§2) The screening was successful at identifying known antifungal drugs as inhibitors of yeast replication as indicated by an OD600 signal of less than 75% of the negative control (Table 2). For the purpose of these examples, antifungal drugs were defined as any FDA-approved drug used in the treatment of fungal infections. Of these 23 known antifungal drugs, only six (6) were identified as inhibitors of spore germination, indicated by a luciferase signal of less than 30% of the negative control.

[2] = tested on: Cryptococcus neoformans spore germination; experiment: High throughput nanoluciferase screen of spore germination (L1300 Selleck FDA-Approved Drug Library)
Description: as §1, §2

[3] = tested on: Cryptococcus neoformans (JEC21); experiment: MIC/MFC experiments (EUCAST based), JEC21; settings: for Ability to inhibit yeast growth / replication in MIC and MFC testing: yeast strain not given, data not shown for non-inhibitors
Protocol: (§3) All minimum inhibitory concentration (MIC) experiments were based on EUCAST methodology. […] After 6-hour incubation, yeast cells were washed in 1×PBS and quantified using a hemocytometer. […] Cryptococcus neoformans cells were incubated for 2 days at 30° C. while Candida albicans strains were incubated for 2 days at 35° C. OD600 readings were used to assess the MIC values for each drug. To determine minimum fungicidal concentrations (MFC) values, 3 μL per well were plated on YPD and allowed to grow for 2 days.

[4] = tested on: Cryptococcus neoformans (H99); experiment: MIC/MFC experiments (EUCAST based), H99; settings: Cryptococcus neoformans, 48 h
Protocol: as §3

[5] = tested on: Candida albicans (SC5314); experiment: MIC/MFC experiments (EUCAST based), Candida albicans; settings: SC5314, 48 h
Protocol: as §3

[6] = Table 2, antifungal drugs, less than 75% = inhibitor of yeast replication
[7] = Table 2, antifungal drugs, signal relative to negative control, less than 30% = inhibitor of germination
[8] = Table 3, other FDA-approved drugs
[9] = Table 3, other FDA-approved drugs, signal relative to negative control

Molecule	Replication Percent OD600 [1, 6]	Germination Percent Luciferase Signal [2, 7]	Replication Percent OD600 [1, 8]	also measured
CCC(C)(C)c1ccc(CC(C)CN2C[C@@H](C)O[C@@H](C)C2)cc1 (stereo partly drawn) [Amorolfine HCl]	41.4%	88.6%	–	–
C[C@@H]1[C@H](O)[C@@H](C)/C=C/C=C/C=C/C=C/C=C/C=C/C=C/[C@H](O[C@@H]2O[C@H](C)[C@@H](O)[C@H](N)[C@@H]2O)C[C@@H]2O[C@](O)(C[C@@H](O)C[C@@H](O)[C@H](O)CC[C@@H](O)C[C@@H](O)CC(=O)O[C@H]1C)C[C@H](O)[C@H]2C(=O)O [Amphotericin B]	45.7%	84.6%	–	–
CC(C)(C)CC(C)(C)c1ccc(OCCOCC[N+](C)(C)Cc2ccccc2)cc1 [Benzethonium chloride]	–	–	30.3%	Germination Percent Luciferase Signal [2]: 6.9%
OC(CCN1CCCCC1)(c1ccccc1)C1CC2C=CC1C2 (stereo not drawn) [Biperiden HCl]	–	–	56.6%	Ability to inhibit yeast growth / replication in MIC and MFC testing [3]: unable to inhibit yeast growth; Germination Percent Luciferase Signal [2, 9]: 23.4%
CN(Cc1ccc(C(C)(C)C)cc1)Cc1cccc2ccccc12 [Butenafine HCl]	32.9%	57.5%	–	–
Clc1ccc(CCC(Cn2ccnc2)Sc2c(Cl)cccc2Cl)cc1 (stereo not drawn) [Butoconazole nitrate]	33.4%	41.5%	–	–
CCCCCCCCCCCCCCCC[N+](C)(C)C.[Br-] [Cetrimonium bromide]	–	–	63.2%	Germination Percent Luciferase Signal [2, 9]: 4.4%
CCCCCCCCCCCCCCCC[n+]1ccccc1 [Cetylpyridinium chloride]	–	–	31.9%	MFC [4]: < 0.78 µg/mL; MFC ([3]; Cryptococcus neoformans, 48 h): < 0.78 µg/mL; MFC [5]: 3.13 µg/mL; Germination Percent Luciferase Signal [2]: 4.2%
CC(C)(C)C(=O)C(Oc1ccc(Cl)cc1)n1ccnc1 (stereo not drawn) [Climbazole]	38.9%	151.5%	–	–
Clc1ccccc1C(c1ccccc1)(c1ccccc1)n1ccnc1 [Clotrimazole]	34.1%	65.9%	–	–
Cc1cc(N)c2ccccc2[n+]1CCCCCCCCCC[n+]1c(C)cc(N)c2ccccc21 [Dequalinium chloride]	–	–	47.9%	Germination Percent Luciferase Signal [2, 9]: 22.3%
CCCCCCCCCCCC[N+](C)(C)CCOc1ccccc1 [Domiphen bromide]	–	–	63.9%	Germination Percent Luciferase Signal [2, 9]: 4.4%
C=C1/C(=C\C=C2/CCC[C@]3(C)[C@@H]([C@H](C)/C=C/[C@H](C)C(C)C)CC[C@@H]23)C[C@@H](O)C[C@@H]1O [Doxercalciferol]	–	–	55.2%	Germination Percent Luciferase Signal [2, 9]: 17.1%
CO[C@H]1C[C@@H]2CC[C@@H](C)[C@@](O)(O2)C(=O)C(=O)N2CCCC[C@H]2C(=O)O[C@H]([C@H](C)C[C@@H]2CC[C@@H](OCCO)[C@H](OC)C2)CC(=O)[C@H](C)/C=C(\C)[C@@H](O)[C@@H](OC)C(=O)[C@H](C)C[C@H](C)/C=C/C=C/C=C/1C [Everolimus]	–	–	67.7%	Germination Percent Luciferase Signal [2, 9]: 15.7%
O=C1[C@H](CC[C@H](O)c2ccc(F)cc2)[C@@H](c2ccc(O)cc2)N1c1ccc(F)cc1 [Ezetimibe]	–	–	51.3%	Ability to inhibit yeast growth / replication in MIC and MFC testing [3]: unable to inhibit yeast growth; Germination Percent Luciferase Signal [2, 9]: 22.0%
Clc1ccc(C(Cn2ccnc2)OCc2ccc(Sc3ccccc3)cc2)c(Cl)c1 (stereo not drawn) [Fenticonazole nitrate]	36.4%	49.1%	–	–

Molecule	Replication Percent OD600 [1, 6]	Germination Percent Luciferase Signal [2, 7]	Replication Percent OD600 [1, 8]	also measured
OC(Cn1cncn1)(Cn1cncn1)c1ccc(F)cc1F [Fluconazole]	72.2%	84.0%	–	–
Clc1ccc(C(Cn2ccnc2)OCc2c(Cl)cccc2Cl)c(Cl)c1 (stereo not drawn) [Isoconazole nitrate]	37.0%	16.8%	–	–
CCC(C)n1ncn(-c2ccc(N3CCN(c4ccc(OCC5COC(Cn6cncn6)(c6ccc(Cl)cc6Cl)O5)cc4)CC3)cc2)c1=O (stereo not drawn) [Itraconazole]	58.9%	159.6%	–	–
CC(=O)N1CCN(c2ccc(OCC3COC(Cn4ccnc4)(c4ccc(Cl)cc4Cl)O3)cc2)CC1 (stereo not drawn) [Ketoconazole]	35.4%	154.8%	–	–
COc1cccc(N(C)C(=S)Oc2ccc3c(c2)CCCC3)n1 [Liranaftate]	37.6%	64.8%	–	–
Clc1ccc(COC(Cn2ccnc2)c2ccc(Cl)cc2Cl)c(Cl)c1 (stereo not drawn) [Miconazole nitrate]	38.2%	25.5%	–	–
CN(C/C=C/c1ccccc1)Cc1cccc2ccccc12 [Naftifine HCl]	34.5%	55.5%	–	–
C=CC(=O)N1CCC[C@@H](n2nc(-c3ccc(Oc4ccccc4)cc3)c3c(N)ncnc32)C1 [PCl-32765]	–	–	70.3%	Germination Percent Luciferase Signal [2, 9]: 10.6%
N=C(N)c1ccc(OCCCCCOc2ccc(C(=N)N)cc2)cc1 [Pentamidine HCl]	38.3%	6.5%	–	–
CC[C@@H]([C@H](C)O)n1ncn(-c2ccc(N3CCN(c4ccc(OC[C@@H]5CO[C@@](Cn6cncn6)(c6ccc(F)cc6F)C5)cc4)CC3)cc2)c1=O [Posaconazole]	46.7%	167.2%	–	–
CO[C@H]1C[C@@H]2CC[C@@H](C)[C@@](O)(O2)C(=O)C(=O)N2CCCC[C@H]2C(=O)O[C@H]([C@H](C)C[C@@H]2CC[C@@H](O)[C@H](OC)C2)CC(=O)[C@H](C)/C=C(\C)[C@@H](O)[C@@H](OC)C(=O)[C@H](C)C[C@H](C)/C=C/C=C/C=C/1C [Rapamycin]	–	–	61.8%	Germination Percent Luciferase Signal [2, 9]: 18.5%
Clc1ccc(CSC(Cn2ccnc2)c2ccc(Cl)cc2Cl)cc1 (stereo not drawn) [Sulconazole nitrate]	40.9%	57.8%	–	–
Clc1ccc(C(Cn2ccnc2)OCc2ccsc2Cl)c(Cl)c1 (stereo not drawn) [Tioconazoie]	36.8%	25.0%	–	–
Cc1cccc(N(C)C(=S)Oc2ccc3ccccc3c2)c1 [Tolnaftate]	47.3%	60.2%	–	–
C[C@@H](c1ncncc1F)[C@](O)(Cn1cncn1)c1ccc(F)cc1F [Voriconazole]	35.8%	173.9%	–	–
Caspofungin acetate	48.5%	89.7%	–	–
